Test results from PMC9854774, “Monocarbonyl Curcumin Analogues as Potent Inhibitors against Human Glutathione Transferase P1-1” (Antioxidants, 2022).
“Also recorded” adds a separate entry of the source. Where two headings read alike, the source gives them in different places.

Columns and labels:
hGSTP1-1 [1] = biological target: T1, hGSTP1-1 (Homo sapiens, UniProt P09211); assay: hGSTP1-1 enzyme activity/inhibition assay (CDNB-GSH conjugation, 340 nm); format: biochemical; settings: recombinant hGSTP1-1, 25 °C; for Enzyme Inhibition (%) / inhibition at 100 µM: compound at final concentration of 100 μM; for IC50: CDNB/GSH assay, read-out: IC50 against hGSTP1-1
T1 construct: made in house; host or cells: E. coli BL21 (DE3)
T1 sequence (P09211 2-210 limits assumed): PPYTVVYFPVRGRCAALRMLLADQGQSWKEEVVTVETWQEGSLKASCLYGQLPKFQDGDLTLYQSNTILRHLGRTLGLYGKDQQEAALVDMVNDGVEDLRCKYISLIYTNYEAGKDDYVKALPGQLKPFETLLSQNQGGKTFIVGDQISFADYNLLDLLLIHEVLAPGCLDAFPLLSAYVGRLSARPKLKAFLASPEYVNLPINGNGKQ
Protocol: Determination of hGSTP1-1 activity was performed by monitoring the formation of the conjugate between CDNB and GSH and measuring the absorption at λ = 340 nm (ε = 9600 L·mol^−1·cm^−1) at 25 °C for 120 s, as described previously. One unit of enzyme activity is defined as the amount of enzyme that produces 1.0 μmol of product per minute under the assay conditions. Curcuminoids and monocarbonyl curcumin analogues were dissolved in DMSO (100 μΜ) and added to the assay mixture (the volume of DMSO was maintained at 2% v/v final concentration). The mixture was incubated at 25 °C for 1 min, prior to adding the enzyme sample. Initial velocities were determined in triplicates and were corrected for spontaneous reaction rates, when necessary. […] The IC50 values were determined from a graph of the remaining GST activity (%) against inhibitor concentration.
(§1) The computer program GraphPad Prism version 8 (GraphPad Prism Software, Inc., San Diego, CA, USA) was used for producing kinetic graphs and determining apparent kinetic parameters/constants and IC50 values.

hGSTP1-1 [2] = biological target: T1, hGSTP1-1; set-up: method as in PMID 9463521, PMID 17046132; settings: pH 7.4; presumably covalent binding to Cys-47; cited from earlier work
hGSTP1-1 [3] = biological target: T1, hGSTP1-1; assay: Circular dichroism study of enzyme conformation; settings: 5 μΜ inhibitor; 0.1 mg/mL hGSTP1-1, 2.5 mM GSH (± 1 mM CDNB), pH 6.5
Protocol: CD studies were performed using a JASCO J-715 spectropolarimeter (Jasco Co., Tokyo, Japan) equipped with Peltier temperature controller (Jasco Co., Tokyo, Japan), at 25 °C and a wavelength range of 190–400 nm using a 1-mm-path length quartz cuvette. Each CD spectrum is the average of three scans at 200 nm·min^−1 and a resolution of 0.5 nm. The CD solutions were prepared by mixing the appropriate volumes of stock solutions to give final concentrations of 0.1 mg/mL of hGSTP1-1, 2.5 mM of GSH, 1 mM of CDNB, and 5 μΜ of inhibitor in potassium phosphate buffer (100 mM, pH 6.5) at room temperature, while CD spectra of plain solutions of GSH, CDNB, DM96, and DM62 at the same concentrations were also run as controls (see supporting information). The analysis of the CD data was performed using the OriginPro 9 program and the content of the secondary structure was calculated through the CDNN Circular Dichroism Spectroscopy Deconvolution software.

hGSTP1-1 [4] = biological target: T1, hGSTP1-1; assay: Kinetic inhibition analysis of hGSTP1-1 (Lineweaver-Burk); format: biochemical; settings: for Experimental Binding Free Energy ΔGexp: calculated from Ki; for Experimental Binding Free Energy ΔG′exp: calculated from Ki΄; for Type of Inhibition: pH 6.5, 25 °C; for Inhibition Constant Ki΄: binding to enzyme-substrate complex; for Ki: binding to free enzyme, read-out: Inhibition Constant Ki
Protocol: as §1
Initial velocities (25 °C) for the hGSTP1-1-catalyzed reaction with CDNB as a variable substrate were determined in reaction mixtures (1 mL total volume) containing potassium phosphate buffer (100 mM, pH 6.5), 2.5 mM GSH, and different concentrations of CDNB (typically 14–1000 μM) in the absence and presence of inhibitors (DM96, DM151, DM109, DMC, 0–50 μM). Initial velocities for the hGSTP1-1-catalyzed reaction with GSH as a variable substrate were determined in reaction mixtures (1 mL total volume) (25 °C) containing potassium phosphate buffer (100 mM, pH 6.5), 1 mM CDNB, and different concentrations of GSH (typically 37.5–3750 μΜ) in the absence and presence of inhibitors (DM96, DM151, DM109, Curcumin II, 0–50 μM).

DU-145 cells = assay: In vitro cytotoxicity, MTT colorimetric assay; format: cell-based, human; settings: read-out: IC50 against DU-145
Protocol: DU-145 cells were grown in Dulbecco’s modified eagle medium (DMEM) growth medium of pH 7.4, supplemented with 10% fetal bovine serum (FBS), penicillin (100 U·mL^−1), glutamine (2 mM), and streptomycin (100 μg·mL^−1). Cell cultures were maintained in flasks and were grown at 37 °C in a humidified atmosphere of 5% CO2 in air. […] The subcultivation ratio was 1:2 to 1:5.
Cells were seeded in 96-well plates (8 × 10^3 cells/well in 100 μL culture medium) and grown overnight at 37 °C in a 5% CO2 incubator. Exponentially growing cells were incubated for 48 h with various concentrations ranging between 10^−3–10^−[…] of each derivative, and the final DMSO concentration never exceeded 0.2%. The medium was then removed and replaced with 100 μL of MTT solution (1 mg·mL^−1). After a 4 h incubation, the solution was aspirated, formazan crystals were solubilized in 100 μL of DMSO, and absorbance was recorded at 540 nm on a Tecan well plate reader. The results were expressed as % cell viability = (mean optical density (OD) of treated cells/mean OD of untreated cells) × 100.

[5] = tested on: native GST extracted from DU-145 cells; assay: Inhibition of native GST activity in DU-145 cell lysate; format: biochemical, human; settings: inhibitor at its IC50 for recombinant hGSTP1-1, 25 °C
Protocol: DU-145 cells were trypsinized, transferred to a Falcon tube, and centrifuged at 1500× g for 10 min. Subsequently, DMEM was removed and the cell pellet was resuspended in 1 mL of potassium phosphate buffer. The cells were lysed by sonication, the suspension was centrifuged at 13,000× g for 5 min, and the supernatant was collected.

[6] = variable substrate CDNB, 2.5 mM GSH
[7] = variable substrate GSH, 1 mM CDNB
[8] = Homo sapiens, DU-145, 48 h, MTT, 48 h incubation

| Compound | inhibition at 100 µM (hGSTP1-1 [1]) | IC50 (hGSTP1-1 [1]) | Enzyme Inhibition (%) (hGSTP1-1 [1]; 100 µM) | Experimental Binding Free Energy ΔGexp (hGSTP1-1 [4]; variable substrate CDNB) | Experimental Binding Free Energy ΔGexp (hGSTP1-1 [4]; variable substrate GSH) | Ki (hGSTP1-1 [4]; variable substrate CDNB) | Ki (hGSTP1-1 [4]; variable substrate GSH) | other results |
| --- | --- | --- | --- | --- | --- | --- | --- | --- |
| 2,6-bis(3,4-dihydroxybenzylidene)cyclohexanone [DM57] |  |  |  |  |  |  |  | Enzyme Inhibition (%) (hGSTP1-1 [1]): 16.75 ± 3.61% |
| 2,6-dibenzylidenecyclohexanone [DM15] |  |  |  |  |  |  |  | Enzyme Inhibition (%) (hGSTP1-1 [1]): 66.23 ± 2.57% |
| COc1cc(/C=C/C(=O)CC(=O)/C=C/c2ccc(O)c(OC)c2)ccc1O [Curcumin] |  |  |  |  |  |  |  | Mode of inhibition of hGSTP1-1 (hGSTP1-1 [2]): irreversible inhibitor |
| COc1ccc(/C=C2\CCC/C(=C\c3ccc(OC)cc3)C2=O)cc1 [DM46, 2,6-bid(4-methoxybenzylidene)cyclohexanone] | 8.5 ± 2.13% |  |  |  |  |  |  |  |
| O=C1/C(=C/c2ccc(F)cc2)CCC/C1=C\c1ccc(F)cc1 [DM62, (2E,6E)-2,6-bis(4-fluorobenzylidene)cyclohexanone] | 8.4 ± 0.36% |  |  |  |  |  |  | Effect on CD spectrum / conformation of the enzyme (hGSTP1-1 [3]): does not cause the conformational changes observed with DM96 |
| COc1ccc(/C=C/C(=O)/C=C/c2ccc(OC)c(OC)c2)cc1OC [DM95, (1E,4E)-1,5-bis(3,4-dimethoxyphenyl)penta-1,4-dien-3-one] | 44.2 ± 3.06% |  |  |  |  |  |  |  |
| O=C(C=Cc1ccc(O)cc1)C=Cc1ccc(O)cc1 [DM96, 1,5-bis(4-hydroxyphenyl)penta-1,4-dien-3-one] | ~95% | 5.45 ± 1.08 µM | 86.99 ± 1.88% | -7.71 kcal/mol | -7.71 kcal/mol | 3.67 µM | 3.69 µM | Experimental Binding Free Energy ΔG′exp (hGSTP1-1 [4]; variable substrate CDNB): -7.52 kcal/mol; Experimental Binding Free Energy ΔG′exp (hGSTP1-1 [4]; variable substrate GSH): -8.29 kcal/mol; Type of Inhibition (hGSTP1-1 [4]; [6]): mixed-type inhibitor; also recorded: Purely mixed; Inhibition Constant Ki΄ (hGSTP1-1 [4]; variable substrate CDNB): 4.97 ± 2.86 μΜ; Type of Inhibition (hGSTP1-1 [4]; [7]): partially mixed; also recorded: Partial mixed; Inhibition Constant Ki΄ (hGSTP1-1 [4]; variable substrate GSH): 1.45 ± 0.43 μΜ; Effect on CD spectrum / conformation of the enzyme (hGSTP1-1 [3]): causes a great change in the CD spectrum; IC50 (DU-145 cells; [8]): 8.6 ± 1.07 µM |
| COc1cc(C=C2CCCC(=Cc3ccc(O)c(OC)c3)C2=O)ccc1O [DM100, 2,6-bis(3-methoxy-4-hydroxy-benzylidene)cyclohexanone] | 40 ± 1.84% |  |  |  |  |  |  |  |
| O=C(/C=C/c1ccc(F)cc1)/C=C/c1ccc(F)cc1 [DM109, (1E,4E)-1,5-bis(4-fluorophenyl)penta-1,4-dien-3-one] | ~95% | 19.5 ± 1.04 µM | 79.06 ± 2.54% | ΔGexp = −6.66 kcal/mol | ΔGexp = −5.96 kcal/mol | 20.1 µM | 35.1 µM | Type of Inhibition (hGSTP1-1 [4]; [6]): Purely non-competitive; Type of Inhibition (hGSTP1-1 [4]; [7]): Purely non-competitive; IC50 (DU-145 cells; [8]): 44.6 ± 1.08 µM; IC50 (DU-145 cells; MTT, 48 h incubation): 46.1 ± 3.68 µM |
| O=C(/C=C/c1ccc(O)c(O)c1)/C=C/c1ccc(O)c(O)c1 [DM148, (1E,4E)-1,5-bis(3,4-dihydroxyphenyl)penta-1,4-dien-3-one] | 54.8 ± 0.52% |  |  |  |  |  |  |  |
| O=C1C(=Cc2ccc(O)c(O)c2)CCCC1=Cc1ccc(O)c(O)c1 [DM151, 2,6-bis(3,4-dihydroxybenzylidene)cyclohexanone] |  | 11.2 ± 1.03 µM | 88.18 ± 3.65% | ΔGexp = −7.12 kcal/mol | ΔGexp = −7.43 kcal/mol | 9.55 µM | 5.79 µM | Enzyme Inhibition (%) [5]: did not show any inhibition at all; also recorded: No inhibition was observed; Type of Inhibition (hGSTP1-1 [4]; [6]): Purely non-competitive; Type of Inhibition (hGSTP1-1 [4]; [7]): Purely non-competitive; IC50 (DU-145 cells; [8]): 46.1 ± 3.68 µM; IC50 (DU-145 cells; MTT, 48 h incubation): 44.6 ± 1.08 µM |
| COc1cc(/C=C/C(O)=C/C(=O)/C=C/c2ccc(O)cc2)ccc1O [DMC, Demethoxycurcumin] |  | 37.7 ± 1.02 µM | 94.56 ± 0.25% | -7.66 kcal/mol | -5.91 kcal/mol | 3.99 µM | 68 µM | Experimental Binding Free Energy ΔG′exp (hGSTP1-1 [4]; variable substrate CDNB): -7.98 kcal/mol; Experimental Binding Free Energy ΔG′exp (hGSTP1-1 [4]; variable substrate GSH): -6.07 kcal/mol; Type of Inhibition (hGSTP1-1 [4]; variable substrate CDNB, 2.5 mM GSH, listed as Curcumin II): Partially mixed; Inhibition Constant Ki΄ (hGSTP1-1 [4]; variable substrate CDNB): 2.36 ± 1.37 μΜ; Type of Inhibition (hGSTP1-1 [4]; variable substrate GSH, 1 mM CDNB, listed as Curcumin II): Partially mixed; Inhibition Constant Ki΄ (hGSTP1-1 [4]; variable substrate GSH): 52.83 ± 12.25 μΜ; IC50 (DU-145 cells; Homo sapiens, DU-145, 48 h): 48.5 ± 1.09 µM |
